Assay type in all cases: in vivo
The subject of experiment [1] is IL-6. Nature of the experiment: Serum IL-6 production in mice treated with compound and LPS (ELISA). Particulars: C57BL/6J mice, 25 mg/kg LPS i.p., serum 2 hours after LPS, control 2.75, LPS alone 20.1 ng/mL. On the procedure: Six-week-old male C57BL/6J (Shimizu experimental material) was orally administered 100 mg/kg norathyriol, 50 mg/kg M9, and 50 mg/kg M14. Five minutes later, 25 mg/kg LPS was administered intraperitoneally. Serum was collected from mice 2 hours after LPS administration, and the amount of IL-6 production involved in the cytokine storm was measured by enzyme-linked immunosorbent assay (ELISA). This measurement was performed using a mouse IL-6 ELISA kit (R&D).
(§1) Those not receiving the compound and LPS are referred to as the control group, those receiving 25 mg/kg LPS are referred to as the LPS group, those receiving 100 mg/kg norathyriol and 25 mg/kg LPS are referred to as the norathyriol-treated group, those receiving 50 mg/kg M9 and 25 mg/kg LPS are referred to as the M9-treated group, and those receiving 50 mg/kg M14 and 25 mg/kg LPS are referred to as the M14-treated group.

Experiment [2] deals with male C57BL/6J. The experiment in a line: Survival rate of mice treated with compound and LPS (lethality in cytokine storm). Particulars: C57BL/6J mice, 25 mg/kg LPS i.p. 5 min later, day 2, compared to LPS group. How it is done: Six-week-old male C57BL/6J (SHIMIZU Laboratory Supplies Co., Ltd.) were orally administered 50 mg/kg mangiferin 8a, 100 mg/kg norathyriol, 50 mg/kg M9, and 50 mg/kg M14. Five minutes later, 25 mg/kg LPS was administered intraperitoneally. The day of administration was set as day 0, and the survival rate was measured on day 2.
Those not receiving the compound and LPS are referred to as the control group, those receiving 25 mg/kg LPS are referred to as the LPS group, those receiving 50 mg/kg mangiferin 8a and 25 mg/kg LPS are referred to as the mangiferin 8a-treated group, those receiving 100 mg/kg norathyriol and 25 mg/kg LPS are referred to as the norathyriol-treated group, those receiving 50 mg/kg M9 and 25 mg/kg LPS are referred to as the M9-treated group, and those receiving 50 mg/kg M14 and 25 mg/kg LPS are referred to as the M14-treated group.
Referring to FIG. 9, the horizontal axis indicates compound treatment, and the vertical axis indicates survival rate (%).

In experiment [3] the test system is TNFα. Nature of the experiment: Serum TNFα production in mice treated with compound and LPS (ELISA). Particulars: C57BL/6J mice, 25 mg/kg LPS i.p., serum 2 hours after LPS, control 1.55, LPS alone 10.28 ng/mL. On the procedure: Six-week-old male C57BL/6J (Shimizu experimental material) was orally administered 100 mg/kg norathyriol, 50 mg/kg M9, and 50 mg/kg M14. Five minutes later, 25 mg/kg LPS was administered intraperitoneally. Serum was collected from mice 2 hours after LPS administration, and the amount of TNFα production involved in the cytokine storm was measured by enzyme-linked immunosorbent assay (ELISA). This measurement was performed using a mouse TNFα ELISA kit (R&D).
as §1

On to `CCC(=O)OC[C@H]1O[C@@H](c2c(O)cc3oc4cc(O)c(O)cc4c(=O)c3c2O)[C@H](OC(=O)CC)[C@@H](OC(=O)CC)[C@@H]1OC(=O)CC` [M9, 2′,3′,4′,6′-tetra-O-propionylmangiferin], for which, in experiment [1] (50 mg/kg oral), the “IL-6 production in serum” value is 15.15 ng/mL. Also, the survival rate entry in experiment [2] (50 mg/kg oral) was “significantly reduced the decrease in survival”. The “TNFα production in serum” value in experiment [3] (50 mg/kg oral) is listed as 5.68 ng/mL.
The like results for `CCCC(=O)OC[C@H]1O[C@@H](c2c(O)cc3oc4cc(O)c(O)cc4c(=O)c3c2O)[C@H](OC(=O)CCC)[C@@H](OC(=O)CCC)[C@@H]1OC(=O)CCC` [M14, 2′,3′,4′,6′-tetra-O-butyrylmangiferin] were, in that order, 14.26 ng/mL, “significantly reduced the decrease in survival” and 5.2 ng/mL.
Turning to `O=c1c2cc(O)c(O)cc2oc2cc(O)cc(O)c12` [norathyriol, 1,3,6,7-tetrahydroxyxanthone], the “IL-6 production in serum” value in experiment [1] (100 mg/kg oral) came to 11.37 ng/mL. In addition, the survival rate entry in experiment [2] (100 mg/kg oral) is listed as “significantly reduced the decrease in survival”. In addition, the “TNFα production in serum” value in experiment [3] (100 mg/kg oral) was determined as 2.71 ng/mL.
